Where “and” joins values, the source holds several entries; their conditions need not be identical. Identical values can stand only once.
How the values were obtained:
Cyp11a1 [1] = assay: Immunoblot analysis of Cyp11a1 protein in CD8+ T cells; assay type: cell-based, mouse; conditions: IL-2+IL-4, 500 μM AMG, with or without SIINFEKL re-stimulation
Method: In brief, mononuclear cells (MNCs) were processed from the spleens of OT-1 mice followed by stimulation of 1 μg/ml [sequence] peptide (SEQ ID NO:1) was used to stimulate cells for 1.5 hours. Two days after culture, living cells were re-isolated using histopaque and cultured in complete RPMI 1640 medium that contained recombinant mouse IL-2 (20 ng/ml) (R&D, Minneapolis, Minn.) or IL-2+IL-4 (20 ng/ml) (Peprotech, Rocky Hill, N.J.). For some experiments, AMG was added into the medium together with IL-2 or IL-2+IL-4. Medium with cytokines was changed every day for a further 4 days. The cells were then re-stimulated with 1 μg/ml [sequence] (SEQ ID NO:1) in medium containing 2 μM monensin (Calbiochem, La Jolla, Calif.) for 4 hours.
CD8^+ T cells (5×10^6) were lysed with RIPA buffer containing Hale™ protease and phosphatase inhibitor cocktail (Thermo Scientific, Rockford, Ill.) on ice for 30 minutes. Samples were run by sodium dodecyl sulfate polyacrylamide gel electrophoresis (SDS-PAGE) and transferred to nitrocellulose membranes. […] Immunoreactive bands of Western blottings were quantified by densitometric quantification of autoradiographs using Image J (NIMH, Bethesda, Md.), and expressed as relative Cyp11a1 normalized by β-actin.

CD8+ T cells = assay: Flow cytometric intracellular staining of IFN-γ and IL-13 in CD8+ T cells; assay type: cell-based, mouse
Method: CD8^+ effector memory T cells were generated in vitro as previously described (Miyahara, N. et al. J. Immunol. 172, 2549-2558 (2004); Miyahara, N. et al. J. Immunol. 174, 4979-4984 (2005)). In brief, mononuclear cells (MNCs) were processed from the spleens of OT-1 mice followed by stimulation of 1 μg/ml SIINFEKL peptide (SEQ ID NO:1) was used to stimulate cells for 1.5 hours. Two days after culture, living cells were re-isolated using histopaque and cultured in complete RPMI 1640 medium that contained recombinant mouse IL-2 (20 ng/ml) (R&D, Minneapolis, Minn.) or IL-2+IL-4 (20 ng/ml) (Peprotech, Rocky Hill, N.J.). For some experiments, AMG was added into the medium together with IL-2 or IL-2+IL-4. Medium with cytokines was changed every day for a further 4 days. The cells were then re-stimulated with 1 μg/ml SIINFEKL (SEQ ID NO:1) in medium containing 2 μM monensin (Calbiochem, La Jolla, Calif.) for 4 hours. […]
For intracellular staining, 1×10^6/ml cells were washed twice with PBS containing 1% BSA, stimulated with 1 μg/ml SIINFEKL in the presence of 2 μM monensin at 37° C. for 4 hours. After fixation with 4% paraformaldehyde (Electron Microscopy Sciences, Hatfield, Pa.) and permeabilization with 0.1% saponin (Sigma, St. Louis, Mo.), cells were washed twice with PBS containing 1% BSA, then incubated with anti-mouse CD16/CD32 (2.4G2) (BD Bioscience, San Jose, Calif.) at 4° C. for 5 minutes, then stained with FITC labeled anti-mouse IFN-γ (XMG 1.2) (eBioscience, San Diego, Calif.) or PerCP-Cy5.5 labeled anti-mouse […] (XMG 1.2) (eBioscience) and PE-labeled anti-mouse IL-13 (eBio13A) (eBioscience). For some experiments, fixed cells were stained with biotin labeled rabbit anti-Cyp11a1/p450 cc polyclonal antibody (Bioss, Woburn, Mass.) followed by PE-Cy5 labeled streptavidin (PE-Cy5-SAv) (eBioscience). Cell staining was monitored on a FACSCalibur (BD Bioscience) and analyzed using Flowjo software (Tree Star, Inc, Ashland, Oreg.).

[2] = system: T-bet and GATA3 expression; assay: Quantitative RT-PCR of T-bet and GATA3 in CD8+ T cells; assay type: cell-based, mouse; conditions: CD8+ T cells in IL-2 or IL-2+IL-4, untreated vs 500 μM AMG
Method: CD8^+ effector memory T cells were generated in vitro as previously described (Miyahara, N. et al. J. Immunol. 172, 2549-2558 (2004); Miyahara, N. et al. J. Immunol. 174, 4979-4984 (2005)). In brief, mononuclear cells (MNCs) were processed from the spleens of OT-1 mice followed by stimulation of 1 μg/ml SIINFEKL peptide (SEQ ID NO:1) was used to stimulate cells for 1.5 hours. Two days after culture, living cells were re-isolated using histopaque and cultured in complete RPMI 1640 medium that contained recombinant mouse IL-2 (20 ng/ml) (R&D, Minneapolis, Minn.) or IL-2+IL-4 (20 ng/ml) (Peprotech, Rocky Hill, N.J.). For some experiments, AMG was added into the medium together with IL-2 or IL-2+IL-4. Medium with cytokines was changed every day for a further 4 days. The cells were then re-stimulated with 1 μg/ml SIINFEKL (SEQ ID NO:1) in medium containing 2 μM monensin (Calbiochem, La Jolla, Calif.) for 4 hours. Total RNA was extracted from 5×10^6 differentiated CD8^+ T cells using the RNeasy Mini kit (Qiagen, Valencia, Calif.). 1 μg of total RNA was converted into cDNA using iScript cDNA Synthesis kit (Bio-Rad, Hercules, Calif.). […] Fold-changes were determined using the 2^−ΔΔCt method, with normalization to expression of mouse GAPDH.

Cyp11a1 [3] = biological target: T1, Cyp11a1 (Mus musculus, UniProt Q9QZ82); assay: Pregnenolone levels in serum of peanut sensitized and challenged mice (Cyp11a1 enzymatic activity); assay type: in vivo; conditions: AMG 20 mg/kg, PE/PE mice; PE/PE without AMG 4.69±0.92, PBS/PE 1.99±0.11
T1 construct: mononuclear cells (MNCs) were processed from the spleens of OT-1 mice; endogenous in cells
T1 sequence (Q9QZ82 37-526): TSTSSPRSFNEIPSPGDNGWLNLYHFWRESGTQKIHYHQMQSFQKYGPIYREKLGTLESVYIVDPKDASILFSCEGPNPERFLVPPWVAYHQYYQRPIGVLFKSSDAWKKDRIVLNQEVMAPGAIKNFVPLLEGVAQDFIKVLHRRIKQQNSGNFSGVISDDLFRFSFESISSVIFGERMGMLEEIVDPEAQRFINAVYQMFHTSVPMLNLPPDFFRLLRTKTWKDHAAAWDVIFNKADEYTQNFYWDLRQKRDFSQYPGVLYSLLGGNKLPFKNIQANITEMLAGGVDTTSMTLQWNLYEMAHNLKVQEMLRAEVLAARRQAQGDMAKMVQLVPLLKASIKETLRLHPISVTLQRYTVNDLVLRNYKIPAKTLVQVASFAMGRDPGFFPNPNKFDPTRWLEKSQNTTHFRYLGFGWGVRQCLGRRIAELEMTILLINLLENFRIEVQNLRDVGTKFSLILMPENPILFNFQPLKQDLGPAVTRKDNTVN
Method: AMG was dissolved in 1 M hydrogen chloride and diluted with saline for in vivo studies or diluted with RPMI medium for in vitro study. The final concentration of 1 M hydrogen chloride was less than 1% and 0.05% for in vivo and in vitro, respectively. PE sensitized and challenged mice received different doses (5, 10, 20 mg/kg) of the Cyp11a1 enzyme inhibitor (PE/PE/AMG) by means of gavage using a 22-gauge feeding needle (Fisher Scientific) twice a day during the peanut challenge phase. Controls included PE sensitized and challenged but vehicle (saline) treated (PE/PE/vehicle), or sham sensitized but PE challenged and vehicle-treated (PBS/PE/vehicle) mice.
Pregnenolone levels in serum and cell culture supernatants were measured by ELISA (ALPCO Diagnostics, Salem, N.H.), as described by the manufacturer.

[4] = IL-2+AMG (500 μM)+SIINFEKL 1 μg/ml
[5] = IL-2+IL-4+AMG (500 μM), no SIINFEKL
[6] = SIINFEKL and IL-2+IL-4, different concentrations of AMG

With `CCC1(c2ccc(N)cc2)CCC(=O)NC1=O` (stereo not shown) [AMG, aminoglutethimide] the “Cyp11a1 protein levels (immunoblot)” value (Cyp11a1 [1]) was “did not prevent IL-4-induced increases in Cyp11a1 protein levels”, the “Overall suppressive or toxic effect on CD8+ T cell cultures” value (CD8+ T cells; AMG in culture) was “did not have an overall suppressive or toxic effect” and the “IFN-γ single positive cells” value (CD8+ T cells; [4]) was 78.3 +/− 8.3%. The “IFN-γ+IL13+ double positive cells” value (CD8+ T cells; [4]) was 9.0 +/− 2.7%, the “IL-13 single positive cells” value (CD8+ T cells; [4]) was 0.1 +/− 0.1% and the “IFN-γ+IL13+ double positive cells” value (CD8+ T cells; IL-2+IL-4+AMG (500 μM)+SIINFEKL, without AMG 8.8±2.3%) was 14.7±5.5% and 14.7 +/− 5.5%. The “IFN-γ single positive cells” value (CD8+ T cells; IL-2+IL-4+AMG (500 μM)+SIINFEKL, without AMG 14.5±5.8%) was 42.4±11.5%, the “IL-13 single positive cells” value (CD8+ T cells; IL-2+IL-4+AMG (500 μM)+SIINFEKL, without AMG 35.7±8.2%) was 14.7±8.9% and the “IFN-γ single positive cells” value (CD8+ T cells; [5]) was 0.9 +/− 0.5%. The “IL-13 single positive cells” value (CD8+ T cells; [5]) was 2.3 +/− 1.5%, the “IFN-γ-positive cells, dose dependence” value (CD8+ T cells; [6]) was “increase in IFN-γ-positive cells” and the “Percentage of IL-13-positive cells, dose dependence” value (CD8+ T cells; [6]) was “dramatic dose-dependent decrease in the percentage of IL-13-positive cells”. For the same molecule, the “Duration of the effects of AMG on CD8+ T cell conversion before the cells recovered” value (CD8+ T cells; initial studies) was “up to forty-eight hours”, the GATA3 expression [2] was “no significant differences” and the T-bet expression [2] was “no significant differences”. For the same molecule, the “Pregnenolone levels in serum” value (Cyp11a1 [3]) was 2.98 ± 0.60 ng/mL.

From patent US9534221B2, “Targeting the steroidogenic pathway for treating and/or preventing allergic diseases” (National Jewish Health, priority 2013, dated 2017)
